According to patent US20230085307A1, “PYRIDAZINONE COMPOUND AND HERBICIDE” (NISSAN CHEMICAL CORPORATION, priority 2019, published 2023):

How the values were obtained:
[1] = system: rice flat sedge; test: Test Example 3: herbicidal effect by foliage application, Wagner pot (Table 18, symbol E); assay type: in vivo, rice flat sedge (Cyperus iria); settings: amount of applied herbicide 320 g/ha
Outline: (§1)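 Plants were sown in alluvial soil held under 0.1–0.5 cm standing water and grown 14 days in a greenhouse at 25–30 °C. An emulsifiable formulation, water-diluted to the set dose, was then sprayed onto the foliage, and effects were scored three weeks later using previously defined criteria.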

[2] = system: blackgrass; test: Test Example 4: herbicidal effect by soil treatment (Table 19, symbol J); assay type: in vivo, blackgrass (Alopecurus myosuroides); settings: amount of applied herbicide 320 g/ha
Outline: (§2)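 Pre-emergence style soil spray: seeds under ~1.5 cm sterilized diluvial soil received a uniform coat of emulsion diluted to the predetermined herbicide amount. Greenhouse 25–30° C; readout at week three on previously defined criteria.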

[3] = system: chickweed; test: Test Example 4: herbicidal effect by soil treatment (Table 19, symbol P); assay type: in vivo, common chickweed (Stellaria media); settings: amount of applied herbicide 320 g/ha
Outline: as §2

[4] = system: barnyard grass; test: Test Example 4: herbicidal effect by soil treatment (Table 19, symbol H); assay type: in vivo, barnyard grass (Echinochloa crus-galli); settings: amount of applied herbicide 320 g/ha
Outline: as §2

[5] = system: lambsquarters; test: Test Example 5: herbicidal effect by foliage application, plastic box (Table 20, symbol O); assay type: in vivo, lambsquarters (Chenopodium album); settings: foliage application, evaluated three weeks after application
Outline: (§3)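 Plants were sown into sterilized diluvial soil under about 1.5 cm cover and kept in a greenhouse at 25° C. to 30° C. Fourteen days on, foliage received an even spray of the diluted emulsion. Herbicidal or crop effect was judged three weeks afterwards.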

[6] = system: blackgrass; test: Test Example 5: herbicidal effect by foliage application, plastic box (Table 20, symbol J); assay type: in vivo, blackgrass (Alopecurus myosuroides); settings: foliage application, evaluated three weeks after application
Outline: as §3

[7] = system: windgrass; test: Test Example 4: herbicidal effect by soil treatment (Table 19, symbol L); assay type: in vivo, windgrass (Apera spica-venti); settings: amount of applied herbicide 320 g/ha
Outline: as §2

[8] = system: redroot pigweed; test: Test Example 5: herbicidal effect by foliage application, plastic box (Table 20, symbol N); assay type: in vivo, redroot pigweed (Amaranthus retroflexus); settings: foliage application, evaluated three weeks after application
Outline: as §3

[9] = system: velvetleaf; test: Test Example 5: herbicidal effect by foliage application, plastic box (Table 20, symbol M); assay type: in vivo, velvetleaf (Abutilon theophrasti); settings: foliage application, evaluated three weeks after application
Outline: as §3

[10] = system: barnyard grass; test: Test Example 3: herbicidal effect by foliage application, Wagner pot (Table 18, symbol H); assay type: in vivo, barnyard grass (Echinochloa crus-galli); settings: amount of applied herbicide 320 g/ha
Outline: as §1

[11] = system: green foxtail; test: Test Example 4: herbicidal effect by soil treatment (Table 19, symbol G); assay type: in vivo, green foxtail (Setaria viridis); settings: amount of applied herbicide 320 g/ha
Outline: as §2

[12] = system: redroot pigweed; test: Test Example 4: herbicidal effect by soil treatment (Table 19, symbol N); assay type: in vivo, redroot pigweed (Amaranthus retroflexus); settings: amount of applied herbicide 320 g/ha
Outline: as §2

[13] = system: chickweed; test: Test Example 5: herbicidal effect by foliage application, plastic box (Table 20, symbol P); assay type: in vivo, common chickweed (Stellaria media); settings: foliage application, evaluated three weeks after application
Outline: as §3

[14] = system: wild oat; test: Test Example 5: herbicidal effect by foliage application, plastic box (Table 20, symbol I); assay type: in vivo, wild oat (Avena fatua); settings: foliage application, evaluated three weeks after application
Outline: as §3

[15] = system: green foxtail; test: Test Example 5: herbicidal effect by foliage application, plastic box (Table 20, symbol G); assay type: in vivo, green foxtail (Setaria viridis); settings: foliage application, evaluated three weeks after application
Outline: as §3

[16] = system: windgrass; test: Test Example 5: herbicidal effect by foliage application, plastic box (Table 20, symbol L); assay type: in vivo, windgrass (Apera spica-venti); settings: foliage application, evaluated three weeks after application
Outline: as §3

[17] = system: wild oat; test: Test Example 4: herbicidal effect by soil treatment (Table 19, symbol I); assay type: in vivo, wild oat (Avena fatua); settings: amount of applied herbicide 320 g/ha
Outline: as §2

[18] = system: southern crabgrass; test: Test Example 5: herbicidal effect by foliage application, plastic box (Table 20, symbol F); assay type: in vivo, southern crabgrass (Digitaria ciliaris); settings: foliage application, evaluated three weeks after application
Outline: as §3

[19] = system: southern crabgrass; test: Test Example 4: herbicidal effect by soil treatment (Table 19, symbol F); assay type: in vivo, southern crabgrass (Digitaria ciliaris); settings: amount of applied herbicide 320 g/ha
Outline: as §2

[20] = system: barnyard grass; test: Test Example 5: herbicidal effect by foliage application, plastic box (Table 20, symbol H); assay type: in vivo, barnyard grass (Echinochloa crus-galli); settings: foliage application, evaluated three weeks after application
Outline: as §3

[21] = system: lambsquarters; test: Test Example 4: herbicidal effect by soil treatment (Table 19, symbol O); assay type: in vivo, lambsquarters (Chenopodium album); settings: amount of applied herbicide 320 g/ha
Outline: as §2

[22] = system: Italian ryegrass; test: Test Example 4: herbicidal effect by soil treatment (Table 19, symbol K); assay type: in vivo, Italian ryegrass (Lolium multiflorum); settings: amount of applied herbicide 320 g/ha
Outline: as §2

[23] = system: persian speedwell; test: Test Example 5: herbicidal effect by foliage application, plastic box (Table 20, symbol R); assay type: in vivo, Persian speedwell (Veronica persica); settings: foliage application, evaluated three weeks after application
Outline: as §3

[24] = system: Italian ryegrass; test: Test Example 5: herbicidal effect by foliage application, plastic box (Table 20, symbol K); assay type: in vivo, Italian ryegrass (Lolium multiflorum); settings: foliage application, evaluated three weeks after application
Outline: as §3

[25] = system: persian speedwell; test: Test Example 4: herbicidal effect by soil treatment (Table 19, symbol R); assay type: in vivo, Persian speedwell (Veronica persica); settings: amount of applied herbicide 320 g/ha
Outline: as §2

[26] = system: Chinese sprangletop; test: Test Example 3: herbicidal effect by foliage application, Wagner pot (Table 18, symbol D); assay type: in vivo, chinese sprangletop (Leptochloa chinensis); settings: amount of applied herbicide 320 g/ha
Outline: as §1

[27] = system: velvetleaf; test: Test Example 4: herbicidal effect by soil treatment (Table 19, symbol M); assay type: in vivo, velvetleaf (Abutilon theophrasti); settings: amount of applied herbicide 320 g/ha
Outline: as §2

CCCC(=O)Oc1c(C)nn(C)c(=O)c1-c1c(-c2cccc(OCC)c2)sc2ccc(F)cc12 [2-212]
herbicidal effect on E: rice flat sedge [1]: 4 (Herbicidal rate of 70% or more and less than 90%)
J: blackgrass, herbicidal effect rating [2]: 0 (Herbicidal rate of 5% or less (almost no effect))
P: chickweed, herbicidal effect rating [3]: 1 (Herbicidal rate of 5% or more and less than 20%)
H: barnyard grass, herbicidal effect rating [4]: 5 (Herbicidal rate of 90% or more (almost completely withered))
herbicidal effect on O: lambsquarters (criteria 0-5) ([5]; 320 g/ha): 3 (Herbicidal rate of 40% or more and less than 70%)
herbicidal effect on J: blackgrass (criteria 0-5) ([6]; 320 g/ha): 0 (Herbicidal rate of 5% or less (almost no effect))
L: windgrass, herbicidal effect rating [7]: 0 (Herbicidal rate of 5% or less (almost no effect))
herbicidal effect on N: redroot pigweed (criteria 0-5) ([8]; 320 g/ha): 5 (Herbicidal rate of 90% or more (almost completely withered))
herbicidal effect on M: velvetleaf (criteria 0-5) ([9]; 320 g/ha): 3 (Herbicidal rate of 40% or more and less than 70%)
herbicidal effect on H: barnyard grass [10]: 5 (Herbicidal rate of 90% or more (almost completely withered))
G: green foxtail, herbicidal effect rating [11]: 4 (Herbicidal rate of 70% or more and less than 90%)
N: redroot pigweed, herbicidal effect rating [12]: 3 (Herbicidal rate of 40% or more and less than 70%)
herbicidal effect on P: chickweed (criteria 0-5) ([13]; 320 g/ha): 5 (Herbicidal rate of 90% or more (almost completely withered))
herbicidal effect on I: wild oat (criteria 0-5) ([14]; 320 g/ha): 0 (Herbicidal rate of 5% or less (almost no effect))
herbicidal effect on G: green foxtail (criteria 0-5) ([15]; 320 g/ha): 5 (Herbicidal rate of 90% or more (almost completely withered))
herbicidal effect on L: windgrass (criteria 0-5) ([16]; 320 g/ha): 3 (Herbicidal rate of 40% or more and less than 70%)
I: wild oat, herbicidal effect rating [17]: 0 (Herbicidal rate of 5% or less (almost no effect))
herbicidal effect on F: southern crabgrass (criteria 0-5) ([18]; 320 g/ha): 5 (Herbicidal rate of 90% or more (almost completely withered))
F: southern crabgrass, herbicidal effect rating [19]: 3 (Herbicidal rate of 40% or more and less than 70%)
herbicidal effect on H: barnyard grass (criteria 0-5) ([20]; 320 g/ha): 4 (Herbicidal rate of 70% or more and less than 90%)
O: lambsquarters, herbicidal effect rating [21]: 1 (Herbicidal rate of 5% or more and less than 20%)
K: Italian ryegrass, herbicidal effect rating [22]: 3 (Herbicidal rate of 40% or more and less than 70%)
herbicidal effect on R: persian speedwell (criteria 0-5) ([23]; 320 g/ha): 5 (Herbicidal rate of 90% or more (almost completely withered))
herbicidal effect on K: Italian ryegrass (criteria 0-5) ([24]; 320 g/ha): 4 (Herbicidal rate of 70% or more and less than 90%)
R: persian speedwell, herbicidal effect rating [25]: 4 (Herbicidal rate of 70% or more and less than 90%)
herbicidal effect on D: Chinese sprangletop [26]: 3 (Herbicidal rate of 40% or more and less than 70%)
M: velvetleaf, herbicidal effect rating [27]: 0 (Herbicidal rate of 5% or less (almost no effect))

C#CCOc1c(C)nn(C)c(=O)c1-c1c(-c2ccc(OC(F)F)cc2)sc2ccc(F)cc12 [2-301]
herbicidal effect on E: rice flat sedge [1]: 2 (Herbicidal rate of 20% or more and less than 40%)
herbicidal effect on J: blackgrass [2]: 0 (Herbicidal rate of 5% or less (almost no effect))
herbicidal effect on P: chickweed [3]: 0 (Herbicidal rate of 5% or less (almost no effect))
herbicidal effect on H: barnyard grass [4]: 0 (Herbicidal rate of 5% or less (almost no effect))
O: lambsquarters, herbicidal effect (criteria 0-5) ([5]; AAH 320 g/ha): 5 (Herbicidal rate of 90% or more (almost completely withered))
J: blackgrass, herbicidal effect (criteria 0-5) ([6]; AAH 320 g/ha): 0 (Herbicidal rate of 5% or less (almost no effect))
herbicidal effect on L: windgrass [7]: 0 (Herbicidal rate of 5% or less (almost no effect))
N: redroot pigweed, herbicidal effect (criteria 0-5) ([8]; AAH 320 g/ha): 3 (Herbicidal rate of 40% or more and less than 70%)
M: velvetleaf, herbicidal effect (criteria 0-5) ([9]; AAH 320 g/ha): 5 (Herbicidal rate of 90% or more (almost completely withered))
herbicidal effect on H: barnyard grass [10]: 3 (Herbicidal rate of 40% or more and less than 70%)
herbicidal effect on G: green foxtail [11]: 0 (Herbicidal rate of 5% or less (almost no effect))
herbicidal effect on N: redroot pigweed [12]: 0 (Herbicidal rate of 5% or less (almost no effect))
P: chickweed, herbicidal effect (criteria 0-5) ([13]; AAH 320 g/ha): 5 (Herbicidal rate of 90% or more (almost completely withered))
I: wild oat, herbicidal effect (criteria 0-5) ([14]; AAH 320 g/ha): 0 (Herbicidal rate of 5% or less (almost no effect))
G: green foxtail, herbicidal effect (criteria 0-5) ([15]; AAH 320 g/ha): 0 (Herbicidal rate of 5% or less (almost no effect))
L: windgrass, herbicidal effect (criteria 0-5) ([16]; AAH 320 g/ha): 0 (Herbicidal rate of 5% or less (almost no effect))
herbicidal effect on I: wild oat [17]: 0 (Herbicidal rate of 5% or less (almost no effect))
F: southern crabgrass, herbicidal effect (criteria 0-5) ([18]; AAH 320 g/ha): 0 (Herbicidal rate of 5% or less (almost no effect))
herbicidal effect on F: southern crabgrass [19]: 0 (Herbicidal rate of 5% or less (almost no effect))
H: barnyard grass, herbicidal effect (criteria 0-5) ([20]; AAH 320 g/ha): 0 (Herbicidal rate of 5% or less (almost no effect))
herbicidal effect on O: lambsquarters [21]: 0 (Herbicidal rate of 5% or less (almost no effect))
herbicidal effect on K: Italian ryegrass [22]: 0 (Herbicidal rate of 5% or less (almost no effect))
R: persian speedwell, herbicidal effect (criteria 0-5) ([23]; AAH 320 g/ha): 5 (Herbicidal rate of 90% or more (almost completely withered))
K: Italian ryegrass, herbicidal effect (criteria 0-5) ([24]; AAH 320 g/ha): 0 (Herbicidal rate of 5% or less (almost no effect))
herbicidal effect on R: persian speedwell [25]: 3 (Herbicidal rate of 40% or more and less than 70%)
herbicidal effect on D: Chinese sprangletop [26]: 0 (Herbicidal rate of 5% or less (almost no effect))
herbicidal effect on M: velvetleaf [27]: 0 (Herbicidal rate of 5% or less (almost no effect))
